pIC50: −log10 of the molar value.
Molecular target: CDK2/Cyclin E1 (Homo sapiens (Human), UniProt P24941)
Assay: CDK2/Cyclin E1 HTRF enzyme activity assay (Example A)
Type: biochemical
Settings: 1 mM ATP
Description: Assays were conducted in white 384-well polystyrene plates in a final reaction volume of 8 μL. […] HTRF signals were read after 1 hour at room temperature on a PHERAstar FS plate reader (BMG Labtech). Data was analyzed with IDBS XLFit and GraphPad Prism 5.0 software using a three or four parameter dose response curve to determine IC50 for each compound.

Row | SMILES | pIC50
1 | C[C@@H]1CN(S(C)(=O)=O)CC[C@@H]1Nc1ncc(C(F)(F)F)c(-c2cn(-c3ccc(CN(C)C)cc3Cl)cn2)n1 [Example 220, 4-(1-(2-Chloro-4-((dimethylamino)-methyl)phenyl)-1H-imidazol-4-yl)-N-((3R,4S)-3-methyl-1-(methylsulfonyl)-piperidin-4-yl)-5-(trifluoromethyl)-pyrimidin-2-amine] | ≥ 7.30
2 | C[C@@H]1CN(S(=O)(=O)C2CC2)CC[C@@H]1Nc1ncc(C(F)(F)F)c(-c2cn(-c3ccc(CNC4CC4)cc3Cl)cn2)n1 [Example 221, 4-(1-(2-Chloro-4-((cyclopropylamino)-methyl)phenyl)-1H-imidazol-4-yl)-N-((3R,4S)-1-(cyclo-propylsulfonyl)-3-methylpiperidin-4-yl)-5-(trifluoro-methyl)pyrimidin-2-amine] | ≥ 7.30
3 | C[C@@H]1CN(S(=O)(=O)C2CC2)CC[C@@H]1Nc1ncc(C(F)(F)F)c(-c2cn(-c3ccc(CN(C)C)cc3Cl)cn2)n1 [Example 222, 4-(1-(2-Chloro-4-((dimethylamino)-methyl)phenyl)-1H-imidazol-4-yl)-N-((3R,4S)-1-(cyclo-propylsulfonyl)-3-methylpiperidin-4-yl)-5-(trifluoro-methyl)pyrimidin-2-amine] | ≥ 7.30
4 | CNCc1ccc(-n2cnc(-c3nc(N[C@H]4CCN(S(=O)(=O)C5CC5)C[C@H]4C)ncc3C(F)(F)F)c2)c(Cl)c1 [Example 223, 4-(1-(2-Chloro-4-((methylamino)-methyl)phenyl)-1H-imidazol-4-yl)-N-((3R,4S)-1-(cyclo-propylsulfonyl)-3-methylpiperidin-4-yl)-5-(trifluoro-methyl)pyrimidin-2-amine] | ≥ 7.30
5 | CC1CN(Cc2ccc(-n3cnc(-c4nc(N[C@H]5CCN(S(C)(=O)=O)C[C@H]5F)ncc4C(F)(F)F)c3)c(Cl)c2)C1 [Example 224, 4-(1-(2-Chloro-4-((3-methylazetidin-1-yl)methyl)phenyl)-1H-imidazol-4-yl)-N-((3R,4S)-3-fluoro-1-(methylsulfonyl)-piperidin-4-yl)-5-(trifluoromethyl)-pyrimidin-2-amine] | ≥ 7.30
6 | CNCc1ccc(-n2cnc(-c3nc(N[C@@H]4CCN(S(C)(=O)=O)C[C@H]4F)ncc3C(F)(F)F)c2)c(Cl)c1 [Example 225, 4-(1-(2-Chloro-4-((methylamino)-methyl)phenyl)-1H-imidazol-4-yl)-N-((3R,4R)-3-fluoro-1-(methylsulfonyl)-piperidin-4-yl)-5-(trifluoromethyl)-pyrimidin-2-amine] | ≥ 7.30
7 | CNCc1ccc(-n2cnc(-c3nc(NC4CCN(S(C)(=O)=O)CC4)ncc3C#N)c2)c(Cl)c1 [Example 226, 4-(1-(2-Chloro-4-((methylamino)-methyl)phenyl)-1H-imidazol-4-yl)-2-((1-(methylsulfonyl)-piperidin-4-yl)-amino)pyrimidine-5-carbonitrile] | ≥ 7.30
8 | CNCc1ccc(-n2cnc(-c3nc(NC4CCN(S(C)(=O)=O)CC4)ncc3Cl)c2)c(Cl)c1 [Example 227, 5-Chloro-4-(1-(2-chloro-4-((methyl-amino)methyl)-phenyl)-1H-imidazol-4-yl)-N-(1-(methyl-sulfonyl)piperidin-4-yl)pyrimidin-2-amine] | ≥ 7.30
9 | O=S(=O)(C1CC1)N1CCC(Nc2ncc(C(F)(F)F)c(-c3cn(-c4ccc(CN5CCC5)cc4Cl)cn3)n2)CC1 [Example 228, 4-(1-(4-(Azetidin-1-ylmethyl)-2-chlorophenyl)-1H-imidazol-4-yl)-N-(1-(cyclopropylsulfonyl)piperidin-4-yl)-5-(trifluoromethyl)pyrimidin-2-amine] | ≥ 7.30
10 | CCS(=O)(=O)N1CCC(Nc2ncc(C(F)(F)F)c(-c3cn(-c4ccc(CN5CCC5)cc4Cl)cn3)n2)CC1 [Example 229, 4-(1-(4-(Azetidin-1-ylmethyl)-2-chlorophenyl)-1H-imidazol-4-yl)-N-(1-(ethylsulfonyl)piperidin-4-yl)-5-(trifluoromethyl)pyrimidin-2-amine] | ≥ 7.30
11 | O=S(=O)(NC1CC1)N1CCC(Nc2ncc(C(F)(F)F)c(-c3cn(-c4ccc(CN5CCC5)cc4Cl)cn3)n2)CC1 [Example 230, 4-((4-(1-(4-(Azetidin-1-ylmethyl)-2-chlorophenyl)-1H-imidazol-4-yl)-5-(trifluoromethyl)pyrimidin-2-yl)amino)-N-cyclopropylpiperidine-1-sulfonamide] | ≥ 7.30
12 | CS(=O)(=O)N1CCC(Nc2ncc(C(F)(F)F)c(-c3cn(-c4ccc(CO)cc4Cl)cn3)n2)CC1 [Example 231, (3-Chloro-4-(4-(2-((1-(methylsulfonyl)piperidin-4-yl)amino)-5-(trifluoromethyl)pyrimidin-4-yl)-1H-imidazol-1-yl)phenyl)methanol] | ≥ 7.30
13 | CS(=O)(=O)N1CCC(Nc2ncc(C(F)(F)F)c(-c3cn(-c4cccc(C#N)c4CO)cn3)n2)CC1 [Example 232, 2-(Hydroxymethyl)-3-(4-(2-((1-(methylsulfonyl)piperidin-4-yl)amino)-5-(trifluoromethyl)pyrimidin-4-yl)-1H-imidazol-1-yl)benzonitrile] | ≥ 7.30
14 | CS(=O)(=O)N1CCC(Nc2ncc(C(F)(F)F)c(-c3cn(-c4cccc5c4COC5=O)cn3)n2)CC1 [Example 233, 4-(4-(2-((1-(Methylsulfonyl)piperidin-4-yl)amino)-5-(trifluoromethyl)pyrimidin-4-yl)-1H-imidazol-1-yl)isobenzofuran-1(3H)-one] | ≥ 7.30
15 | C[C@@H]1CN(S(C)(=O)=O)CC[C@@H]1Nc1ncc(C(F)(F)F)c(-c2cn(-c3ccc(CO)cc3Cl)cn2)n1 [Example 234, (3-Chloro-4-(4-(2-(((3R,4S)-3-methyl-1-(methylsulfonyl)piperidin-4-yl)amino)-5-(trifluoromethyl)pyrimidin-4-yl)-1H-imidazol-1-yl)phenyl)methanol] | ≥ 7.30
16 | CS(=O)(=O)N1CCC(Nc2ncc(C(F)(F)F)c(-c3cn(-c4ccc(C#N)cc4CO)cn3)n2)CC1 [Example 235, 3-(Hydroxymethyl)-4-(4-(2-((1-(methylsulfonyl)piperidin-4-yl)amino)-5-(trifluoromethyl)pyrimidin-4-yl)-1H-imidazol-1-yl)benzonitrile] | ≥ 7.30
17 | CS(=O)(=O)N1CCC(Nc2ncc(C(F)(F)F)c(-c3cn(-c4ccc(C#N)nc4CO)cn3)n2)CC1 [Example 236, 6-(Hydroxymethyl)-5-(4-(2-((1-(methylsulfonyl)piperidin-4-yl)amino)-5-(trifluoromethyl)pyrimidin-4-yl)-1H-imidazol-1-yl)picolinonitrile] | ≥ 7.30
18 | CS(=O)(=O)N1CCC(Nc2ncc(C(F)(F)F)c(-c3cn(-c4ccccc4CO)cn3)n2)CC1 [Example 237, (2-(4-(2-((1-(Methylsulfonyl)piperidin-4-yl)amino)-5-(trifluoromethyl)pyrimidin-4-yl)-1H-imidazol-1-yl)phenyl)methanol] | ≥ 7.30
19 | CS(=O)(=O)N1CCC(Nc2ncc(C(F)(F)F)c(-c3cn(-c4ccc(Cn5ccnc5)cc4Cl)cn3)n2)CC1 [Example 238, 4-(1-(4-((H-Imidazol-1-yl)methyl)-2-chlorophenyl)-1H-imidazol-4-yl)-N-(1-(methylsulfonyl)piperidin-4-yl)-5-(trifluoromethyl)pyrimidin-2-amine] | ≥ 7.30

Source: patent publication US11427567B2, “Imidazolyl pyrimidinylamine compounds as CDK2 inhibitors” (Incyte Corporation, priority 2019, dated 2022)
